# Source: paper PMC5218480 (PLoS ONE, 2017)
# System: MV-4-11 cells
# Assay: Gene expression microarray analysis (Affymetrix PrimeView) and GSEA
# Type: cell-based, human
# Design: RFU PODN (11730768_x_at) / Fold change /veh PODN (11730768_x_at) / RFU LINC00158 (11744669_a_at) / Fold change /veh LINC00158 (11744669_a_at) / RFU DUSP10 (11751237_a_at) / Fold change /veh DUSP10 (11751237_a_at) / RFU ID3 (11757404_x_at) / Fold change /veh ID3 (11757404_x_at) / RFU PLEKHG5 (11737974_s_at) / Fold change /veh PLEKHG5 (11737974_s_at) / RFU LRRC4B (11730491_at) / Fold change /veh LRRC4B (11730491_at) / RFU GIMAP4 (11747438_a_at) / Fold change /veh GIMAP4 (11747438_a_at) / RFU KRT8 (11758183_x_at) / Fold change /veh KRT8 (11758183_x_at) / RFU CNN1 (11734310_a_at) / Fold change /veh CNN1 (11734310_a_at) / RFU VPS37D (11726825_at) / Fold change /veh VPS37D (11726825_at) / RFU C10orf10 (11716522_x_at) / Fold change /veh C10orf10 (11716522_x_at) / RFU KIR2DL2 /// KIR2DL4 /// KIR2DL5A /// KIR2DL5B /// KIR2DS1 /// KIR2DS2 /// KIR2DS3 /// KIR2DS4 /// KIR3DL3 /// KIR3DL3 /// KIR3DS1 (11738374_at) / Fold change /veh KIR2DL2 /// KIR2DL4 /// KIR2DL5A /// KIR2DL5B /// KIR2DS1 /// KIR2DS2 /// KIR2DS3 /// KIR2DS4 /// KIR3DL3 /// KIR3DL3 /// KIR3DS1 (11738374_at) / RFU C1QL1 (11718748_at) / Fold change /veh C1QL1 (11718748_at) / RFU TMPRSS4 (11747572_a_at) / Fold change /veh TMPRSS4 (11747572_a_at) / RFU HAMP (11756126_x_at) / Fold change /veh HAMP (11756126_x_at) / RFU RNFT2 (11725882_a_at) / Fold change /veh RNFT2 (11725882_a_at) / RFU NR4A2 (11747474_a_at) / Fold change /veh NR4A2 (11747474_a_at) / RFU ABCC12 (11746883_a_at) / Fold change /veh ABCC12 (11746883_a_at) / RFU TMEM136 (11760407_x_at) / Fold change /veh TMEM136 (11760407_x_at) / RFU CLDN22 /// WWC2 (11732394_at) / Fold change /veh CLDN22 /// WWC2 (11732394_at) / RFU HLA-DPB1 (11760878_x_at) / Fold change /veh HLA-DPB1 (11760878_x_at) / RFU SPINT1 (11716480_a_at) / Fold change /veh SPINT1 (11716480_a_at) / RFU GAP43 (11754022_s_at) / Fold change /veh GAP43 (11754022_s_at) / RFU A4GNT (11735810_at) / Fold change /veh A4GNT (11735810_at) / RFU PRB3 (11715151_x_at) / Fold change /veh PRB3 (11715151_x_at) / RFU TUBB4B (11761932_at) / Fold change /veh TUBB4B (11761932_at) / RFU CAPN14 (11732068_a_at) / Fold change /veh CAPN14 (11732068_a_at) / RFU TMCC2 (11721928_a_at) / Fold change /veh TMCC2 (11721928_a_at) / RFU IRGQ (11745062_a_at) / Fold change /veh IRGQ (11745062_a_at) / RFU FAM174B (11720279_a_at) / Fold change /veh FAM174B (11720279_a_at) / RFU TMPRSS4 (11748680_a_at) / Fold change /veh TMPRSS4 (11748680_a_at) / RFU FAM212B (11763350_a_at) / Fold change /veh FAM212B (11763350_a_at) / RFU PLEKHG5 (11743358_a_at) / Fold change /veh PLEKHG5 (11743358_a_at) / RFU ZSCAN30 (11745921_a_at) / Fold change /veh ZSCAN30 (11745921_a_at) / RFU CMKLR1 (11741424_a_at) / Fold change /veh CMKLR1 (11741424_a_at) / RFU LOC101060620 /// MAPK8IP1 (11723275_at) / Fold change /veh LOC101060620 /// MAPK8IP1 (11723275_at) / RFU SPTSSB (11747773_x_at) / Fold change /veh SPTSSB (11747773_x_at) / RFU PRSS12 (11739890_at) / Fold change /veh PRSS12 (11739890_at) / RFU BIN1 (11741810_x_at) / Fold change /veh BIN1 (11741810_x_at) / RFU WNT11 (11732464_a_at) / Fold change /veh WNT11 (11732464_a_at) / RFU C10orf10 (11716521_a_at) / Fold change /veh C10orf10 (11716521_a_at) / RFU C5orf56 (11738089_at) / Fold change /veh C5orf56 (11738089_at) / RFU CYB561 (11721691_x_at) / Fold change /veh CYB561 (11721691_x_at) / RFU ANKRD19P (11752326_a_at) / Fold change /veh ANKRD19P (11752326_a_at) / RFU OR2T12 /// OR2T33 /// OR2T8 (11738714_s_at) / Fold change /veh OR2T12 /// OR2T33 /// OR2T8 (11738714_s_at) / RFU VCAN (11748164_a_at) / Fold change /veh VCAN (11748164_a_at) / RFU JSRP1 (11732532_at) / Fold change /veh JSRP1 (11732532_at) / RFU KRTAP10-11 (11738290_x_at) / Fold change /veh KRTAP10-11 (11738290_x_at) / RFU MYO3A (11730013_a_at) / Fold change /veh MYO3A (11730013_a_at) / RFU EBF3 (11725865_a_at) / Fold change /veh EBF3 (11725865_a_at) / RFU CAMK2N1 (11719241_x_at) / Fold change /veh CAMK2N1 (11719241_x_at) / RFU C5orf56 (11738088_a_at) / Fold change /veh C5orf56 (11738088_a_at) / RFU OLFML3 (11715873_a_at) / Fold change /veh OLFML3 (11715873_a_at) / RFU LOC100653217 /// NTM (11731650_a_at) / Fold change /veh LOC100653217 /// NTM (11731650_a_at) / RFU MAPK11 (11762145_a_at) / Fold change /veh MAPK11 (11762145_a_at) / RFU FIZ1 (11724087_x_at) / Fold change /veh FIZ1 (11724087_x_at) / RFU OASL (11726364_x_at) / Fold change /veh OASL (11726364_x_at) / RFU SOX15 (11748057_x_at) / Fold change /veh SOX15 (11748057_x_at) / RFU CD79A (11719716_a_at) / Fold change /veh CD79A (11719716_a_at) / RFU HIST1H1D (11736915_at) / Fold change /veh HIST1H1D (11736915_at) / RFU CASKIN2 (11723855_a_at) / Fold change /veh CASKIN2 (11723855_a_at) / RFU LOC730098 (11760151_x_at) / Fold change /veh LOC730098 (11760151_x_at) / RFU OR4N2 (11742367_at) / Fold change /veh OR4N2 (11742367_at) / RFU PRRT2 (11749266_a_at) / Fold change /veh PRRT2 (11749266_a_at) / RFU SNX32 (11753110_a_at) / Fold change /veh SNX32 (11753110_a_at) / RFU CDHR5 (11726645_a_at) / Fold change /veh CDHR5 (11726645_a_at) / RFU RCAN1 (11760418_a_at) / Fold change /veh RCAN1 (11760418_a_at) / RFU FAM167A (11723789_a_at) / Fold change /veh FAM167A (11723789_a_at) / RFU FAM26E (11764081_at) / Fold change /veh FAM26E (11764081_at) / RFU ISYNA1 (11749810_s_at) / Fold change /veh ISYNA1 (11749810_s_at) / RFU ACY1 (11761880_at) / Fold change /veh ACY1 (11761880_at) / RFU 11764098_at / Fold change /veh 11764098_at / RFU SAMD14 (11745864_x_at) / Fold change /veh SAMD14 (11745864_x_at) / RFU NPB (11741838_a_at) / Fold change /veh NPB (11741838_a_at) / RFU TMPRSS6 (11731388_a_at) / Fold change /veh TMPRSS6 (11731388_a_at) / RFU KRTAP10-2 (11738614_at) / Fold change /veh KRTAP10-2 (11738614_at) / RFU ARHGAP8 /// PRR5-ARHGAP8 (11727945_x_at) / Fold change /veh ARHGAP8 /// PRR5-ARHGAP8 (11727945_x_at) / RFU KRTAP5-7 /// NADSYN1 (11734609_at) / Fold change /veh KRTAP5-7 /// NADSYN1 (11734609_at) / RFU RASL12 (11751679_a_at) / Fold change /veh RASL12 (11751679_a_at) / RFU CDKN2B (11736163_a_at) / Fold change /veh CDKN2B (11736163_a_at) / RFU PRF1 (11729649_at) / Fold change /veh PRF1 (11729649_at) / RFU, ZNF638 /// ZNF638-IT1 / Fold change vs veh, ZNF638 /// ZNF638-IT1 / RFU, PANK3 / Fold change vs veh, PANK3 / RFU, SH3YL1 / Fold change vs veh, SH3YL1 / RFU, ZEB2 / Fold change vs veh, ZEB2 / RFU, NRIP1 / Fold change vs veh, NRIP1 / RFU, PTTG1IP / Fold change vs veh, PTTG1IP / RFU, CAPN2 / Fold change vs veh, CAPN2 / RFU, MED14 / Fold change vs veh, MED14 / RFU, SNORA58 / Fold change vs veh, SNORA58 / RFU, C1orf63 / Fold change vs veh, C1orf63 / RFU, LRRFIP1 / Fold change vs veh, LRRFIP1 / RFU, NDUFAF7 / Fold change vs veh, NDUFAF7 / RFU, SLC12A2 / Fold change vs veh, SLC12A2 / RFU, IBTK / Fold change vs veh, IBTK / RFU, ESF1 / Fold change vs veh, ESF1 / Fold change vs veh, TMEM50B / RFU, TAOK1 / Fold change vs veh, TAOK1 / RFU, ACBD3 / Fold change vs veh, ACBD3 / RFU, TMA16 / Fold change vs veh, TMA16 / RFU, RWDD3 / Fold change vs veh, RWDD3 / RFU, BCAT1 / Fold change vs veh, BCAT1 / RFU, EDEM3 / Fold change vs veh, EDEM3 / RFU, TMEM33 / Fold change vs veh, TMEM33 / RFU, WDR75 / Fold change vs veh, WDR75 / RFU, AHCTF1 / Fold change vs veh, AHCTF1 / RFU, TFRC / Fold change vs veh, TFRC / RFU, ZDHHC17 / Fold change vs veh, ZDHHC17 / RFU, NOM1 / Fold change vs veh, NOM1 / RFU, ARL8B / Fold change vs veh, ARL8B / RFU, ZBTB11 / Fold change vs veh, ZBTB11 / RFU, TAMM41 / Fold change vs veh, TAMM41 / RFU, KIAA1704 /// LOC100996395 / Fold change vs veh, KIAA1704 /// LOC100996395 / RFU, ING1 / Fold change vs veh, ING1 / RFU, TRMT61B / Fold change vs veh, TRMT61B / RFU, FUBP3 / Fold change vs veh, FUBP3 / RFU, TP53 / Fold change vs veh, TP53 / RFU, TNKS2 / Fold change vs veh, TNKS2 / RFU, ZFP14 / Fold change vs veh, ZFP14 / RFU, ACTR2 / Fold change vs veh, ACTR2 / RFU, PPP3R1 / Fold change vs veh, PPP3R1 / RFU, PIK3R1 / Fold change vs veh, PIK3R1 / RFU, HNRNPA1 / Fold change vs veh, HNRNPA1 / RFU, RNF170 / Fold change vs veh, RNF170 / RFU, ZNF28 / Fold change vs veh, ZNF28 / RFU, RNGTT / Fold change vs veh, RNGTT / RFU, OGT / Fold change vs veh, OGT / RFU, BRD1 / Fold change vs veh, BRD1 / RFU, MARS / Fold change vs veh, MARS / RFU, ZNF655 / Fold change vs veh, ZNF655 / RFU, FAHD1 / Fold change vs veh, FAHD1 / RFU, BDP1 / Fold change vs veh, BDP1 / RFU, LRRCC1 / Fold change vs veh, LRRCC1 / RFU, ARID1A / Fold change vs veh, ARID1A / RFU, ZNF146 / Fold change vs veh, ZNF146 / RFU, ZNF330 / Fold change vs veh, ZNF330 / RFU, GPN3 / Fold change vs veh, GPN3 / RFU, C9orf123 / Fold change vs veh, C9orf123 / RFU, N4BP2L2 / Fold change vs veh, N4BP2L2 / RFU, ARFIP1 / Fold change vs veh, ARFIP1 / RFU, FAM179B / Fold change vs veh, FAM179B / RFU, BCL10 / Fold change vs veh, BCL10 / RFU, UHRF1BP1L / Fold change vs veh, UHRF1BP1L / RFU, BET1 / Fold change vs veh, BET1 / RFU, CNOT2 / Fold change vs veh, CNOT2 / RFU, ZNF268 / Fold change vs veh, ZNF268 / Fold change vs veh, ZNF507 / RFU, DGCR2 / Fold change vs veh, DGCR2 / RFU, WDSUB1 / Fold change vs veh, WDSUB1 / Fold change vs veh, HSP90B1 /// MIR3652 / RFU, ADSS / Fold change vs veh, ADSS / RFU, GK / Fold change vs veh, GK / RFU, ZNF148 / Fold change vs veh, ZNF148 / RFU, TAF9 / Fold change vs veh, TAF9 / RFU, SLC1A5 / Fold change vs veh, SLC1A5 / RFU, SLMO2 / Fold change vs veh, SLMO2 / RFU, ABCC4 / Fold change vs veh, ABCC4 / RFU, LOC101060439 /// RAP1B / Fold change vs veh, LOC101060439 /// RAP1B / RFU, RFX7 / Fold change vs veh, RFX7 / RFU, GTPBP10 / Fold change vs veh, GTPBP10 / RFU, CNEP1R1 / Fold change vs veh, CNEP1R1 / RFU, BIVM-ERCC5 /// ERCC5 / Fold change vs veh, BIVM-ERCC5 /// ERCC5 / RFU, ILF3 / Fold change vs veh, ILF3 / RFU 11762660_at / Fold change /veh 11762660_at / RFU VCAN (11757783_s_at) / Fold change /veh VCAN (11757783_s_at) / RFU DDX43 (11728927_at) / Fold change /veh DDX43 (11728927_at) / RFU KRT8 (11758188_x_at) / Fold change /veh KRT8 (11758188_x_at) / RFU NKD1 (11759106_at) / Fold change /veh NKD1 (11759106_at) / RFU SRD5A1 (11742802_a_at) / Fold change /veh SRD5A1 (11742802_a_at) / RFU TPSAB1 /// TPSB2 (11721975_s_at) / Fold change /veh TPSAB1 /// TPSB2 (11721975_s_at) / RFU GSTM3 (11746129_a_at) / Fold change /veh GSTM3 (11746129_a_at) / RFU IL23R (11737362_x_at) / Fold change /veh IL23R (11737362_x_at) / RFU TMEM51 (11727254_a_at) / Fold change /veh TMEM51 (11727254_a_at) / RFU PIWIL2 (11732686_x_at) / Fold change /veh PIWIL2 (11732686_x_at) / RFU ORM1 (11744905_x_at) / Fold change /veh ORM1 (11744905_x_at) / RFU CCDC152 (11743942_at) / Fold change /veh CCDC152 (11743942_at) / RFU ECM1 (11717891_a_at) / Fold change /veh ECM1 (11717891_a_at) / RFU IL23R (11748794_a_at) / Fold change /veh IL23R (11748794_a_at) / RFU TNFAIP8L3 (11732012_x_at) / Fold change /veh TNFAIP8L3 (11732012_x_at) / RFU MBOAT4 (11741988_at) / Fold change /veh MBOAT4 (11741988_at) / RFU 11764193_at / Fold change /veh 11764193_at / RFU TMEM53 (11763286_at) / Fold change /veh TMEM53 (11763286_at) / RFU MAGEB2 (11727129_at) / Fold change /veh MAGEB2 (11727129_at) / RFU TMEM200A (11744735_a_at) / Fold change /veh TMEM200A (11744735_a_at) / RFU CCDC152 (11751479_a_at) / Fold change /veh CCDC152 (11751479_a_at) / RFU FAM211A (11726209_a_at) / Fold change /veh FAM211A (11726209_a_at) / RFU RGS16 (11746705_a_at) / Fold change /veh RGS16 (11746705_a_at) / RFU VCAN (11755009_s_at) / Fold change /veh VCAN (11755009_s_at) / RFU RHOB (11743442_s_at) / Fold change /veh RHOB (11743442_s_at) / RFU RGS16 (11720943_a_at) / Fold change /veh RGS16 (11720943_a_at) / RFU RGS16 (11720944_at) / Fold change /veh RGS16 (11720944_at) / RFU, VPS4B / Fold change vs veh, VPS4B / RFU, CREB1 / Fold change vs veh, CREB1 / RFU, DNAJC13 / Fold change vs veh, DNAJC13 / RFU, GNAQ / Fold change vs veh, GNAQ / RFU, CDK5R1 / Fold change vs veh, CDK5R1 / RFU, ZRANB3 / Fold change vs veh, ZRANB3 / RFU, CUL4A / Fold change vs veh, CUL4A / RFU, CCNY / Fold change vs veh, CCNY / RFU, UFL1 / Fold change vs veh, UFL1 / RFU, COG3 / Fold change vs veh, COG3 / RFU, DIAPH2 / Fold change vs veh, DIAPH2 / RFU, SKA2 / Fold change vs veh, SKA2 / RFU, AFF3 / Fold change vs veh, AFF3 / RFU, LMF1 / Fold change vs veh, LMF1 / RFU, IPO11 / Fold change vs veh, IPO11 / RFU, DFFB / Fold change vs veh, DFFB / RFU, FOXP1 / Fold change vs veh, FOXP1 / RFU, CARD8 / Fold change vs veh, CARD8 / RFU, STRN3 / Fold change vs veh, STRN3 / RFU, ADK / Fold change vs veh, ADK / RFU, RASSF2 / Fold change vs veh, RASSF2 / RFU, WIPF1 / Fold change vs veh, WIPF1 / RFU, LARP1B / Fold change vs veh, LARP1B / RFU, RASA1 / Fold change vs veh, RASA1 / RFU, RB1 / Fold change vs veh, RB1 / RFU, PPFIA1 / Fold change vs veh, PPFIA1 / RFU, MAT2A / Fold change vs veh, MAT2A / RFU, CCT5 / Fold change vs veh, CCT5 / RFU, WDR92 / Fold change vs veh, WDR92 / RFU, CUX1 / Fold change vs veh, CUX1 / RFU, TTC7A / Fold change vs veh, TTC7A / RFU, TMEM135 / Fold change vs veh, TMEM135 / RFU, DEPTOR / Fold change vs veh, DEPTOR / RFU, CPM / Fold change vs veh, CPM / RFU, DNAJB6 / Fold change vs veh, DNAJB6 / RFU, CACNA2D3 / Fold change vs veh, CACNA2D3 / RFU, DTX4 / Fold change vs veh, DTX4 / RFU, TFCP2 / Fold change vs veh, TFCP2 / RFU, GMCL1 /// GMCL1P1 / Fold change vs veh, GMCL1 /// GMCL1P1 / RFU, AEBP2 / Fold change vs veh, AEBP2 / RFU, SNHG1 /// SNORD22 /// SNORD25 /// SNORD26 /// SNORD27 /// SNORD28 /// SNORD29 /// SNORD31 / Fold change vs veh, SNHG1 /// SNORD22 /// SNORD25 /// SNORD26 /// SNORD27 /// SNORD28 /// SNORD29 /// SNORD31 / Fold change (Aza/veh), C12orf56 (ProbeSet 11735607_a_at) / Fold change (ACY-1035/veh), C12orf56 (ProbeSet 11735607_a_at) / Fold change (Aza/veh), FGFR1OP (ProbeSet 11751329_s_at) / Fold change (ACY-1035/veh), FGFR1OP (ProbeSet 11751329_s_at) / Fold change (Aza/veh), VPS36 (ProbeSet 11739960_a_at) / Fold change (ACY-1035/veh), VPS36 (ProbeSet 11739960_a_at) / RFU SYPL1 (11715823_x_at) / Fold change /veh SYPL1 (11715823_x_at) / RFU IGFBP7 (11715501_s_at) / Fold change /veh IGFBP7 (11715501_s_at) / RFU REEP3 (11722064_at) / Fold change /veh REEP3 (11722064_at) / RFU IGLL1 (11728026_x_at) / Fold change /veh IGLL1 (11728026_x_at): dose or concentration left out as unconfirmed
# Conditions: ProbeSet 11728314_at; LIST B
smiles,measurement,value
Nc1ccc(-c2cccs2)cc1NC(=O)c1ccc2c(c1)cc(C1CC1)n2CCN1CCOCC1 [ACY-1035],"Fold change vs veh, ZNF148",0.92
